The Dmax is the largest share of the target that was removed. What is called DC50 is the midpoint of the concentration-degradation curve. As a reminder, the Ki is the equilibrium dissociation constant of an inhibitor or competing ligand from its target.

17 compounds from patent publication US20260232682A1, “GSPT1 DEGRADER COMPOUNDS” (Captor Therapeutics S.A., priority 2023, published 2026) can be followed below.

SMILES strings stand for the structures.

The target of assay [1] is T1, GSPT1-HiBiT protein in GSPT1-HiBiT HEK293 cells (Homo sapiens, UniProt P15170+Q96SW2).
T1 construct: endogenous in cells; host or cells: HEK293 (CRISPR/Cas9 knock-in of HiBiT at the GSPT1 locus)
T1 sequence (P15170 whole entry): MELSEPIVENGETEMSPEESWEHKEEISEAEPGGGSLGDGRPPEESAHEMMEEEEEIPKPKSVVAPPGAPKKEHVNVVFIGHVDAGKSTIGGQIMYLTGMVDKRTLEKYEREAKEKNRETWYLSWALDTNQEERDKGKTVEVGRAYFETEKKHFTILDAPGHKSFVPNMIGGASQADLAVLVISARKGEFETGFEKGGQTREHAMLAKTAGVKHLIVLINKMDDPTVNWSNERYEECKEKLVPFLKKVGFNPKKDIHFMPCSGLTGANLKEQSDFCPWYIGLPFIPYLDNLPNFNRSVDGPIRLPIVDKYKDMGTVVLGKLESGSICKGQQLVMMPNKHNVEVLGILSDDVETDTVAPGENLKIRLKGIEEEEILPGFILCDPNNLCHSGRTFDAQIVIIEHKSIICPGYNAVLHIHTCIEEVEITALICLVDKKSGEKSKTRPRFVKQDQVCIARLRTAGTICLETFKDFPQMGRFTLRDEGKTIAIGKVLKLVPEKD
T1 sequence (Q96SW2 whole entry): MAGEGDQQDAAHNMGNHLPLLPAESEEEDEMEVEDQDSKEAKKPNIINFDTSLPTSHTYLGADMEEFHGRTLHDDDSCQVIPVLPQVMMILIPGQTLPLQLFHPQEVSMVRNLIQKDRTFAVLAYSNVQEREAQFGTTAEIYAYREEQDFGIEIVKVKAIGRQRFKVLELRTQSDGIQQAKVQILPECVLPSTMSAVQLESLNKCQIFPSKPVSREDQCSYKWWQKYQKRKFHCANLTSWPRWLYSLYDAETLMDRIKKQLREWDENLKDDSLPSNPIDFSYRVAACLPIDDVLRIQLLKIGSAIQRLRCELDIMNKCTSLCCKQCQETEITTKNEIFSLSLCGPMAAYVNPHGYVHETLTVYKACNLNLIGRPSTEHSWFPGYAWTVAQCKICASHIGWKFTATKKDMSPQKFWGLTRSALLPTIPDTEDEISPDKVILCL
T1 sequence (Q16531 whole entry partner): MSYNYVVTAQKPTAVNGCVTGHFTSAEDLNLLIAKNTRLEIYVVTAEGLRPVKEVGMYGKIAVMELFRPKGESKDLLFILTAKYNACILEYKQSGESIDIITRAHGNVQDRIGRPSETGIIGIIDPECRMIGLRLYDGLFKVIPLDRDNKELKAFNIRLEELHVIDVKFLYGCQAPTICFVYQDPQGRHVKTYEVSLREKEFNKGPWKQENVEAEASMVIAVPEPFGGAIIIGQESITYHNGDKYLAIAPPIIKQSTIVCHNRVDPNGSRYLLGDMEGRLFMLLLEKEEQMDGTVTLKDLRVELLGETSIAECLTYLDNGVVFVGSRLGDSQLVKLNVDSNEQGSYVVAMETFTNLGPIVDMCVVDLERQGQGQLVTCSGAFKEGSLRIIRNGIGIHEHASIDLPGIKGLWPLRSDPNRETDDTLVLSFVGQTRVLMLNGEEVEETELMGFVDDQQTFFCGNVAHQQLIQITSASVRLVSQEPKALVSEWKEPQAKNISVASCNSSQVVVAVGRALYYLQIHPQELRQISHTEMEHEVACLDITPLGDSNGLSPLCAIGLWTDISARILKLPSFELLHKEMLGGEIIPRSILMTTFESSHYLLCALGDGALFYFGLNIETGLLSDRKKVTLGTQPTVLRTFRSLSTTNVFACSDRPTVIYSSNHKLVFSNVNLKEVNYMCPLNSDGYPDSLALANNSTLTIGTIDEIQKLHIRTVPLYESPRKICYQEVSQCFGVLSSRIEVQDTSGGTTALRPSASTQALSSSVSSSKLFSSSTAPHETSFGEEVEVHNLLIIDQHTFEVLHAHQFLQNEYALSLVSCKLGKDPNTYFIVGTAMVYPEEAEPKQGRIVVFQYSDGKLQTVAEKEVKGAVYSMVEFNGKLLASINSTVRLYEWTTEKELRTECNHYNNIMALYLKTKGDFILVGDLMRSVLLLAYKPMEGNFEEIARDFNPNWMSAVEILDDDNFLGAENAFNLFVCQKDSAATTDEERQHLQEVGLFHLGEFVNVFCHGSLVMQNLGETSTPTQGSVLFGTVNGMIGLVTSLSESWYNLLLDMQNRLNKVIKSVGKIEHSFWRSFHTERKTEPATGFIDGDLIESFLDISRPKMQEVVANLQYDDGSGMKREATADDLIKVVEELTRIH
Put plainly: GSPT1 degradation assay using HiBiT system (Nano-Glo HiBiT lytic assay). In kind it is cell-based. The note with it: 6 hours treatment; for DC50: read-out: HiBiT lytic assay Geomean absolute DC50. An excerpt:
The effect of selected compounds of the invention on GSPT1 protein levels was investigated, using the GSPT1-HiBiT HEK293 cell line and the Nano-Glo HiBiT degradation assay protocol below.
GSPT1-HiBiT HEK293 cells were generated in-house using the HEK293 parental cells (ATCC, cat. no 70016364) and the CRISPR/Cas9 system. HEK293 cells were transformed with pSpCas9-BB-2A-Puro v2.0 plasmid carrying gRNA targeting the C-terminus of GSPT1 and ssODN template containing the HiBiT tag sequence with flanking homology sequences. Neon Transfection System (Thermo Fisher Scientific) was used for electroporation. HEK293 GSPT1-HiBiT cells were cultured with DMEM Glutamax (Gibco) supplemented with 10% heat inactivated FBS (Gibco). After transfection the culture medium was changed to DMEM Glutamax with 10% heat-inactivated FBS and 1% Penicillin-Streptomycin (Biowest) supplemented with Puromycin (2 μg/ml; Invivogen) for clonal selection. In order to isolate single cell clones for further validation and analysis, limiting dilution cloning in 96-well plates was performed. When the single clones reached confluency, HiBiT Lytic Assay (Promega) was performed in order to identify HiBiT positive clones. The clone selected for further studies was verified and validated using genotyping and HiBiT Blotting (Promega).
Cells were maintained in DMEM Glutamax medium, supplemented with 1% penicillin/streptomycin and 10% Fetal Bovine Serum (FBS) at 37° C., 5% CO2. Compounds were stored frozen as 20 mM DMSO stocks.
For the Nano-Glo HiBiT assay, cells were seeded onto 384-well white solid bottom plate at 2×10^3 cells/well in 40 μL using the Agilent BioTek MultiFlo FX Multimode Dispenser and incubated overnight. Following overnight incubation (37° C., 5% CO2) cells were treated with the test compounds and vehicle only (DMSO) control using the Echo 555 Liquid Handler. Twelve data-point compound titration curve with concentrations ranging from 10 μM to 0.03 nM was used. Final DMSO concentration was kept constant at 0.25% v/v across the assay plate. After 6 hours of incubation (37° C., 5% CO2), plates were removed from the incubator and let to equilibrate to RT. Luminescent signal detection was conducted using the Nano-Glo HiBiT Lytic Detection System (Promega, cat. nr N3050). Nano-Glo HiBiT Lytic Reagent was prepared freshly by diluting the LgBiT Protein (1:100 vol/vol) and the Nano-Glo HiBiT Lytic Substrate (1:50 vol/vol) in the relevant volume of the Nano-Glo HiBiT Lytic Buffer. 40 μL of the HiBiT Lytic Reagent was added per well, plates were shaken to facilitate lysis (350 rpm, 5 min, RT) and incubated in the dark for the following 10 min. Luminescence was read using the PHERAstar multimode plate reader (BMG LABTECH). The raw data (the relative luminescence unit values, RLU) were uploaded under the relevant protocol and analysed in CDDVault data management platform. Luminescence (RLU) values were normalized to the controls, and reported absolute DC50 values and Dmax values were calculated in CDDVault using non-linear regression and appropriate equations.
A general note: With HiBiT, luminescence reflects the tagged protein that the partner subunit can reach.

Assay [2] concerns the target [GSPT1]-[compound of formula (I)]-[CRBN/DDB1] complex (Homo sapiens, UniProt P15170+Q96SW2). Kind of assay: AlphaLISA ternary complex formation assay (GSPT1). The format is binding. To be noted: 0.5 h; 1 μM compound; normalized to reference compound CC-885; read-out: Normalized AlphaLISA ternary complex average signal at 1 μM molecule. A digest of the protocol:
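Biotinylated GSPT1 on streptavidin donor beads and 6×His-CRBN/DDB1 on anti-His acceptor beads (each 200 nM before mixing) in HBS pH 7.4 with 0.1% Tween-20 and 1 mM DTT, 2% DMSO final, 30 min at 25 °C. AlphaLISA luminescence is normalized between DMSO background and the reference compound's maximum.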
In general terms: Bead proximity is the source of the signal in Alpha formats.

Assay [3] deals with CRBN/DDB1 protein complex (Homo sapiens, UniProt Q96SW2). Kind of assay: CRBN displacement TR-FRET assay. To be noted: Thalidomide-Red tracer, 6×His-CRBN/DDB1; read-out: CRBN binding Ki. A digest of the protocol: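 Test compound at various concentrations competed with 6.8 nM Thalidomide-Red tracer for 5 nM 6×His-CRBN/DDB1, detected with 0.5 nM anti-His-Eu cryptate in buffer with 1 mM DTT and 1% DMSO. Incubation ran 180 min at room temperature with a time-resolved fluorescence read-out. IC50 values were converted to Ki by Cheng–Prusoff using tracer Kd and protein and tracer concentrations.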
Chain of CRBN/DDB1 protein complex (Q96SW2 whole entry, species assumed): as the sequence (Q96SW2 whole entry) above
Chain of CRBN/DDB1 protein complex (Q16531 whole entry partner, species assumed): as the sequence (Q16531 whole entry partner) above

Chain of [GSPT1]-[compound of formula (I)]-[CRBN/DDB1] complex (P15170 whole entry): as the sequence (P15170 whole entry) above
Chain of [GSPT1]-[compound of formula (I)]-[CRBN/DDB1] complex (Q96SW2 whole entry): as the sequence (Q96SW2 whole entry) above
Chain of [GSPT1]-[compound of formula (I)]-[CRBN/DDB1] complex (Q16531 whole entry partner): as the sequence (Q16531 whole entry partner) above

With `Cc1nc2cc(COC(=O)NC3CCC(C(C)(C)C)CC3)ccc2cc1C1CCC(=O)NC1=O` (centres unmarked) [Compound 55, (3-(2,6-dioxopiperidin-3-yl)-2-methylquinolin-7-yl)methyl (4-(tert-butyl)cyclohexyl)carbamate], in assay [1], the greatest degradation seen (Dmax) was not below 75% and the DC50 was in the range of 10 to 50 nM. Besides, the activation at 1 µM in assay [2] is more than 50%. The Ki in assay [3] was in the range of 500 to 1000 nM.

Turning to `Cc1nc2cc(COC(=O)Nc3ccc4c(c3)OCO4)ccc2cc1C1CCC(=O)NC1=O` (centres unmarked) [Compound 14, (3-(2,6-dioxopiperidin-3-yl)-2-methylquinolin-7-yl)methyl benzo[d][1,3]dioxol-5-ylcarbamate], in assay [1], the Dmax was not below 75% and the DC50 was 10 to 50 nM. For the same compound, the activation at 1 µM in assay [2] was in the range of 10 to 50%. Moreover, in assay [3], the Ki was more than 1000 nM.

For `Cc1nc2cc(COC(=O)Nc3cc(C(C)(C)C)on3)ccc2cc1C1CCC(=O)NC1=O` (centres unmarked) [Compound 70, (3-(2,6-dioxopiperidin-3-yl)-2-methylquinolin-7-yl)methyl (5-(tert-butyl)isoxazol-3-yl)carbamate], in assay [1], the greatest degradation seen (Dmax) is not below 75% and the half-maximal degradation concentration (DC50) was less than 10 nM. In addition, the activation at 1 µM in assay [2] is more than 50%. Moreover, in assay [3], the inhibition constant Ki was less than 500 nM.

Turning to `Cc1nc2ccc(CNC(=O)Nc3cc(C(C)(C)C)no3)cc2cc1N1CCC(=O)NC1=O` [Compound 67, 1-(3-(tert-butyl)isoxazol-5-yl)-3-((3-(2,4-dioxotetrahydropyrimidin-1(2H)-yl)-2-methylquinolin-6-yl)methyl)urea], in assay [1], the maximal degradation (Dmax) was not below 75% and the DC50 lay in the range of 10 to 50 nM. Moreover, the activation at 1 µM in assay [2] was more than 50%. Moreover, the inhibitory constant (Ki) in assay [3] was less than 500 nM.

On to `Cc1ccc(NC(=O)OCc2ccc3cc(C4CCC(=O)NC4=O)c(C)nc3c2)cc1Cl` (centres unmarked) [Compound 4, (3-(2,6-dioxopiperidin-3-yl)-2-methylquinolin-7-yl)methyl (3-chloro-4-methylphenyl)carbamate], for which, in assay [1], the Dmax is not below 75% and the DC50 lay in the range of 10 to 50 nM. Further, in assay [2], the activation at 1 µM is more than 50%. Also, the Ki in assay [3] lay in the range of 500 to 1000 nM.

For the compound `COc1cnc(NC(=O)OCc2ccc3cc(C4CCC(=O)NC4=O)c(C)nc3c2)cn1` (centres unmarked) [Compound 59, (3-(2,6-dioxopiperidin-3-yl)-2-methylquinolin-7-yl)methyl (5-methoxypyrazin-2-yl)carbamate], in assay [1], the Dmax was not below 75% and the DC50 lay in the range of 10 to 50 nM. In addition, the activation at 1 µM in assay [2] is more than 50%. The inhibition constant Ki in assay [3] was less than 500 nM.

`Cc1nc2cc(COC(=O)Nc3cc(C(F)(F)F)n[nH]3)ccc2cc1C1CCC(=O)NC1=O` (centres unmarked) [Compound 69, (3-(2,6-dioxopiperidin-3-yl)-2-methylquinolin-7-yl)methyl (3-(trifluoromethyl)-1H-pyrazol-5-yl)carbamate]: in assay [1], the greatest degradation seen (Dmax) was not below 75% and the 50% degradation concentration (DC50) fell in the range of 10 to 50 nM. For the same compound, the activation at 1 µM in assay [2] is more than 50%. Moreover, the Ki in assay [3] was more than 1000 nM.

For `Cc1nc2cc(COC(=O)Nc3nc(C(C)(C)C)no3)ccc2cc1C1CCC(=O)NC1=O` (centres unmarked) [Compound 80, (3-(2,6-dioxopiperidin-3-yl)-2-methylquinolin-7-yl)methyl (3-(tert-butyl)-1,2,4-oxadiazol-5-yl)carbamate], in assay [1], the Dmax was not below 75% and the half-maximal degradation concentration (DC50) lay in the range of 10 to 50 nM. In addition, in assay [2], the activation at 1 µM is more than 50%. Moreover, the Ki in assay [3] fell in the range of 500 to 1000 nM.

In the case of `Cc1ccc(NC(=O)OCc2cc3nc(C)c(C4CCC(=O)NC4=O)cc3cc2F)cc1Cl` (centres unmarked) [Compound 49, (3-(2,6-dioxopiperidin-3-yl)-6-fluoro-2-methylquinolin-7-yl)methyl (3-chloro-4-methylphenyl)carbamate], in assay [1], the maximal degradation (Dmax) is not below 75% and the DC50 was 50 to 100 nM. For the same compound, the activation at 1 µM in assay [2] lay within 10 to 50%. The Ki in assay [3] is more than 1000 nM.

For `Cc1ccc(NC(=O)OCc2ccc3nc(C)c(N4CCC(=O)NC4=O)cc3c2)cc1Cl` [Compound 29, (3-(2,4-dioxotetrahydropyrimidin-1(2H)-yl)-2-methylquinolin-6-yl)methyl (3-chloro-4-methylphenyl)carbamate], in assay [1], the maximal degradation (Dmax) is not below 75% and the 50% degradation concentration (DC50) was 10 to 50 nM. In addition, the activation at 1 µM in assay [2] lay in the range of 10 to 50%. Moreover, in assay [3], the inhibitory constant (Ki) was less than 500 nM.

As for `Cc1nc2cc(COC(=O)Nc3ccc(N4CCOCC4)nc3)ccc2cc1C1CCC(=O)NC1=O` (centres unmarked) [Compound 42, (3-(2,6-dioxopiperidin-3-yl)-2-methylquinolin-7-yl)methyl (6-morpholinopyridin-3-yl)carbamate], in assay [1], the Dmax was not below 75% and the half-maximal degradation concentration (DC50) fell in the range of 10 to 50 nM. Also, in assay [2], the activation at 1 µM was more than 50%. The inhibition constant Ki in assay [3] was less than 500 nM.

`Cc1nc2cc(COC(=O)Nc3cc(C(C)(C)C)no3)ccc2cc1N1CCC(=O)NC1=O` [Compound 72, (3-(2,4-dioxotetrahydropyrimidin-1(2H)-yl)-2-methylquinolin-7-yl)methyl (3-(tert-butyl)isoxazol-5-yl)carbamate]: in assay [1], the Dmax is not below 75% and the half-maximal degradation concentration (DC50) was in the range of 10 to 50 nM. Further, the activation at 1 µM in assay [2] was in the range of 10 to 50%. The inhibitory constant (Ki) in assay [3] was 500 to 1000 nM.

Take `Cc1nc2cc(COC(=O)Nc3cc(Cl)c(C)c(CN4CCOCC4)c3)ccc2cc1C1CCC(=O)NC1=O` (centres unmarked) [Compound 17, (3-(2,6-dioxopiperidin-3-yl)-2-methylquinolin-7-yl)methyl (3-chloro-4-methyl-5-(morpholinomethyl)phenyl)carbamate]: in assay [1], the greatest degradation seen (Dmax) was not below 75% and the DC50 was less than 10 nM. The activation at 1 µM in assay [2] is 10 to 50%. In addition, the inhibition constant (Ki) in assay [3] was less than 500 nM.

For the compound `Cc1ccc(NC(=O)OCc2ccc3cc(C4CCC(=O)NC4=O)c(C)nc3c2F)cc1Cl` (centres unmarked) [Compound 50, (3-(2,6-dioxopiperidin-3-yl)-8-fluoro-2-methylquinolin-7-yl)methyl (3-chloro-4-methylphenyl)carbamate], in assay [1], the Dmax is not below 75% and the DC50 lay within 10 to 50 nM. The activation at 1 µM in assay [2] was more than 50%. Besides, the inhibition constant Ki in assay [3] is 500 to 1000 nM.

Consider `Cc1ccc(NC(=O)NCc2ccc3nc(C)c(N4CCC(=O)NC4=O)cc3c2)cc1Cl` [Compound 51, 1-(3-chloro-4-methylphenyl)-3-((3-(2,4-dioxotetrahydropyrimidin-1(2H)-yl)-2-methylquinolin-6-yl)methyl)urea], for which, in assay [1], the Dmax was not below 75% and the DC50 lay in the range of 10 to 50 nM. Besides, the activation at 1 µM in assay [2] was in the range of 10 to 50%. Also, the inhibitory constant (Ki) in assay [3] is less than 500 nM.

As for `Cc1ccc(NC(=O)NCc2ccc3cc(N4CCC(=O)NC4=O)c(C)nc3c2)cc1Cl` [Compound 27, 1-(3-chloro-4-methylphenyl)-3-((3-(2,4-dioxotetrahydropyrimidin-1(2H)-yl)-2-methylquinolin-7-yl)methyl)urea], in assay [1], the maximal degradation (Dmax) is not below 75% and the DC50 was in the range of 50 to 100 nM. For the same compound, the activation at 1 µM in assay [2] lay in the range of 10 to 50%. In assay [3], the Ki was less than 500 nM.

For the compound `Cc1nc2cc(COC(=O)Nc3ccc(Cl)c(Cl)c3)ccc2cc1C1CCC(=O)NC1=O` (centres unmarked) [Compound 12, (3-(2,6-dioxopiperidin-3-yl)-2-methylquinolin-7-yl)methyl (3,4-dichlorophenyl)carbamate], in assay [1], the greatest degradation seen (Dmax) was not below 75% and the DC50 lay within 10 to 50 nM. For the same compound, the activation at 1 µM in assay [2] is 10 to 50%. Further, the Ki in assay [3] was more than 1000 nM.
